Measured values: patent publication US11760773B2, “Small molecule drug conjugates of gemcitabine monophosphate” (MaveriX Oncology, Inc., priority 2018, dated 2023)

How the values were obtained:
[1] = Compound 1 and gemcitabine plasma PK in the male cynomolgus monkey (study h); type: in vivo; conditions: plasma
Experimental: Objectives: to compare the plasma pharmacokinetics and stability of the Compound 1 with Int 1-4 and in plasma following a single intravenous infusion administration of Compound 1 at 5 mg/kg and 10 mg/kg with equimolar gemcitabine at 2.28 mg/kg in male cynomolgous monkeys.
PK measurements: compare PK parameters C0, CL, Vdss, Cmax, tmax, t1/2, AUC(0-t), AUC(0-inf), MRT(0-t), MRT(0-inf) for Compound 1 and Int 1-4 with gemcitabine.

[2] = in the clinic; cited from earlier work
[3] = Comparative PK of Int 1-4 versus gemcitabine in rat plasma (study i); type: in vivo, Sprague-Dawley rats; conditions: Sprague-Dawley rat
Description: PK measurements: compare PK parameters C0, CL, Vdss, Cmax, tmax, t1/2, AUC(0-t), AUC(0-inf), MRT(0-t), MRT(0-inf) for Int 1-4 and gemcitabine.

[4] = Comparative dog plasma PK of Int 1-4 versus gemcitabine (study k); type: in vivo; conditions: male beagle dog, after iv gemcitabine 5.29 mg/kg
UT-SCC-16B = test: Tumor cell proliferation (alamarBlue) cytotoxicity assay, UT-SCC-16B; type: cell-based, human; conditions: Homo sapiens, 72 hours treatment
Experimental: (§1) A tumor cell proliferation assay was used to determine cytotoxicity IC50 values for the phosphate prodrug Compounds 1-9, the parent non-phosphorylated SMDC parent compounds, and the effector (gemcitabine) across eight primary early-passage human head and neck squamous cell carcinoma cell lines including UT-SCC-5, UT-SCC-8, UT-SCC-9, UT-SCC-10, UT-SCC-14, UT-SCC-16A, UT-SCC-16B, and UT-SCC-24A.
(§2) UTSCC cells were seeded at 4000 cells/100 I/well on 96-well black clear-bottom tissue culture plate. Cells were incubated at 37° C. and 5% CO2 overnight to allow them to recover and re-attach. The next day cells were treated with the test compound (0-100 μM) for 72 hours. After treatment, cell proliferation was measured by Fluorescent quantitation of alamarBlue reagent. The alamarBlue assay incorporates a fluorometric/colorimetric growth indicator based on detection of metabolic activity. Specifically, resazurin, the active ingredient of alamarBlue reagent, is blue in color and virtually non-fluorescent. Upon entering cells, resazurin is reduced to resorufin, a compound that is red in color and highly fluorescent.
(§3) Continued cell growth maintains a reduced environment, therefore increasing the overall fluorescence and color of the media surrounding cells. The fluorescence intensity of alamarBlue reagent was directly proportional to cell number. To perform the alamarBlue assay, 10 I of alamarBlue reagent was added to each well and the plate was incubated at 37° C. for an additional 2 hour. Fluorescence intensity was measured at an excitation of 530 nm and an emission of 590 nm using a BioTek Synergy™ 2 microplate reader.
(§4) Cell proliferation assays in triplicate were performed at each concentration. The fluorescent intensity data were analyzed using the computer software, Graphpad Prism. In the absence of the compound, the fluorescent intensity (Ft) in each data set was defined as 100%. In the absence of cells, the fluorescent intensity (Fb) in each data set was defined as 0%. The percent cell in the presence of each compound was calculated according to the following equation: % cell=(F−Fb)/(Ft−Fb), where F=the fluorescent intensity in the presence of the compound, Fb=the fluorescent intensity in the absence of cells, and Ft=the fluorescent intensity in the absence of the compound. The values of % cell versus a series of compound concentrations were then plotted using non-linear regression analysis of Sigmoidal dose-response curve generated with the equation Y=B+(T−B)/1+10^((Log EC50-X)×Hill Slope) where Y=percent cell, B=minimum percent cell, T=maximum percent cell, X=logarithm of compound and Hill Slope=slope factor or Hill coefficient. The IC50 value was determined by the concentration causing a half-maximal percent activity.

[5] = Metabolic stability in liver hepatocytes, human; type: in vitro ADME
[6] = Metabolic stability in liver hepatocytes, dog; type: in vitro ADME
UT-SCC-5 = test: Tumor cell proliferation (alamarBlue) cytotoxicity assay, UT-SCC-5; type: cell-based, human; conditions: Homo sapiens; UT-SCC-5, 72 hours treatment
Experimental: as §1, §2, §3, §4

UT-SCC-9 = test: Tumor cell proliferation (alamarBlue) cytotoxicity assay, UT-SCC-9; type: cell-based, human; conditions: Homo sapiens; UT-SCC-9, 72 hours treatment
Experimental: as §1, §2, §3, §4

UT-SCC-14 = test: Tumor cell proliferation (alamarBlue) cytotoxicity assay, UT-SCC-14; type: cell-based, human; conditions: Homo sapiens; UT-SCC-14, 72 hours treatment
Experimental: as §1, §2, §3, §4

UT-SCC-16A = test: Tumor cell proliferation (alamarBlue) cytotoxicity assay, UT-SCC-16A; type: cell-based, human; conditions: Homo sapiens, 72 hours treatment
Experimental: as §1, §2, §3, §4

[7] = Metabolic stability in liver hepatocytes, rat; type: in vitro ADME
UT-SCC-10 = test: Tumor cell proliferation (alamarBlue) cytotoxicity assay, UT-SCC-10; type: cell-based, human; conditions: Homo sapiens; UT-SCC-10, 72 hours treatment
Experimental: as §1, §2, §3, §4

[8] = Liver microsomal stability, human; type: in vitro ADME; conditions: for microsomal CLint: human, liver microsomes
UT-SCC-8 = test: Tumor cell proliferation (alamarBlue) cytotoxicity assay, UT-SCC-8; type: cell-based, human; conditions: Homo sapiens; UT-SCC-8, 72 hours treatment
Experimental: as §1, §2, §3, §4

[9] = Metabolic stability in liver hepatocytes, monkey; type: in vitro ADME
[10] = after iv gemcitabine 2.28 mg/kg
[11] = plasma, after iv Int 1-4 10.0 mg/kg
[12] = plasma, after iv gemcitabine 4.47 mg/kg
[13] = negative value indicates compound is stable, read-out: t1/2 mean ± SE

O=c1ccn(C2OC(CO)C(O)C2(F)F)c(=O)[nH]1 (stereo not drawn) [dFdU]
AUC0-last ([1]; after iv Compound 1 5 mg/kg): 3397 ng·h/mL
AUC(0-inf) ([1]; after iv Compound 1 5 mg/kg): 8767 ng·h/mL
Cmax ([1]; after iv Compound 1 5 mg/kg): 321 ng/mL
MRT0-inf ([1]; after iv Compound 1 5 mg/kg): 34.42 h
MRT0-last ([1]; after iv Compound 1 5 mg/kg): 8.98 h
Tmax ([1]; after iv Compound 1 5 mg/kg): 0.39 h
t1/2 ([1]; after iv Compound 1 5 mg/kg): 24.00 h
AUC0-last [1, 10]: 12467 ng·h/mL
AUC(0-inf) [1, 10]: 17600 ng·h/mL
Cmax [1, 10]: 2153 ng/mL
MRT0-inf [1, 10]: 18.06 h
MRT0-last [1, 10]: 8.21 h
Tmax [1, 10]: 0.04 h
t1/2 [1, 10]: 12.90 h
share of the dose recovered in urine found as this species [2]: 99%
AUC0-last [3, 11]: 288 ng·h/mL
Cmax [3, 11]: 66.5 ng/mL
MRT0-last [3, 11]: 5.55 h
Tmax [3, 11]: 8.00 h
AUC0-last [3, 12]: 1085 ng·h/mL
Cmax [3, 12]: 222 ng/mL
MRT0-last [3, 12]: 5.25 h
Tmax [3, 12]: 8.00 h
t1/2 [4]: 8.55 h

COc1cc(OC)c2oc(COC(=O)Nc3ccn([C@@H]4O[C@H](CO)[C@@H](O)C4(F)F)c(=O)n3)cc2c1 [Int 1-4, (5,7-di(methoxy)benzofuran-2-yl)methyl (1-((2R,4R,5R)-3,3-difluoro-4-hydroxy-5-(hydroxymethyl)tetrahydrofuran-2-yl)-2-oxo-1,2-dihydropyrimidin-4-yl)carbamate]
IC50 (UT-SCC-16B): 162 nM
AUC(0-t) ([1]; after iv Compound 1 5 mg/kg): 4380 ng·h/mL
half-life ([1]; after iv Compound 1 5 mg/kg): 0.76 h
AUC(0-inf) ([1]; after iv Compound 1 5 mg/kg, read-out: AUC0-inf): 4400 ng·h/mL
MRT inf ([1]; after iv Compound 1 5 mg/kg, read-out: MRT0-inf): 0.37 h
MRT last ([1]; after iv Compound 1 5 mg/kg, read-out: MRT0-last): 0.36 h
Slope Mean ± SE [5]: −0.003031 ± 0.001361
half-life ([5]; read-out: t1/2 mean ± SE): 3.81 ± 1.71 h
Slope Mean ± SE [6]: −0.00433 ± 0.001287
half-life [6, 13]: 2.67 ± 0.793 h
IC50 (UT-SCC-5): 16 nM
stability in the rat (based on Cmax and AUC of free gemcitabine in plasma) ([3]; iv Int 1-4): unstable
half-life ([3]; Sprague-Dawley, rat, plasma, iv, 10 mg/kg, plasma, after iv Int 1-4 10.0 mg/kg): 0.319 h
AUC0-inf/AUC0-last [3, 11]: 101%
AUC(0-inf) [3, 11]: 2010 ng·h/mL
AUC(0-t) [3, 11]: 1990 ng·h/mL
C0 [3, 11]: 29400 ng/mL
clearance [3, 11]: 82.3 mL/min/kg
MRT inf ([3]; plasma, after iv Int 1-4 10.0 mg/kg, read-out: MRT0-inf): 0.185 h
MRT last ([3]; plasma, after iv Int 1-4 10.0 mg/kg, read-out: MRT0-last): 0.171 h
Vd ([3]; plasma, after iv Int 1-4 10.0 mg/kg, read-out: Vdss): 0.905 L/kg
IC50 (UT-SCC-9): 39 nM
IC50 (UT-SCC-14): 13 nM
IC50 (UT-SCC-16A): 138 nM
Slope Mean ± SE [7]: −0.007701 ± 0.001794
half-life [7, 13]: 1.5 ± 0.35 h
IC50 (UT-SCC-10): 9 nM
half-life ([8]; human liver microsomes): 30.8 h
Compound Remaining (% of 0 min) 0 min ([8]; human liver microsomes, 0 min): 100 % of 0 min
Compound Remaining (% of 0 min) 5 min ([8]; human liver microsomes, 5 min): 111 % of 0 min
Compound Remaining (% of 0 min) 15 min ([8]; human liver microsomes, 15 min): 94.0 % of 0 min
Compound Remaining (% of 0 min) 30 min ([8]; human liver microsomes, 30 min): 107 % of 0 min
Compound Remaining (% of 0 min) 45 min ([8]; human liver microsomes, 45 min): 99.9 % of 0 min
Compound Remaining (% of 0 min) control ([8]; human liver microsomes, control): 102 % of 0 min
microsomal CLint [8]: 0.747 µL/min/mg
microsomal CLint ([8]; text value): 0.75 µL/min/mg
IC50 (UT-SCC-8): 32 nM
Slope Mean ± SE [9]: −0.005018 ± 0.001425
half-life [9, 13]: 2.3 ± 0.653 h
